Series [1] relates to M17 neuroblastoma cells. The series is described as follows: Rescue of M17 neuroblastoma cells from death induced by MPP+ and H2O2 (MTT). Type of series: cell-based. The text has this:
Cell viability was detected by MTT assay.

Series [2] concerns APPSW/PS1dE9 mice. In words: In vivo toxicity during four-month treatment. Particulars: 50 mg/kg/day ip, age six to ten months. On the procedure:
Female APPSW/PS1dE9 mice received ARN2966 (n=10) or Vehicle (n=15) from the age of six to ten months. ARN2966 (50 mg/kg/day) was given once a day by intraperitoneal injection. […] After conclusion of the experiments, samples of organs from ARN2966 and Vehicle treated animals were subjected to histopathological evaluation conducted by a veterinary pathologist. […] Signs of mild chronic peritonitis related to repeated daily intraperitoneal compound injection, however, were reported in both groups.

Series [3] in a line: Pharmacokinetic characterization including BBB permeability. It is filed as in vivo, CD-1 WT mice. The conditions noted are these: for Brain Cmax / Cmax: mean ±SD; for F (fraction dose absorbed): accounted for po and iv dose difference; for half-life: read-out: Plasma t1/2 (converted). Here is the method: Pharmacokinetic characterization including BBB permeability of ARN2966 was performed in three months old, male CD-1 WT mice, which received a single oral (po; 25 mg/kg) or intravenous (iv; 5 mg/kg) dose of ARN2966 and were sacrificed 0.25, 0.5, 1, 2, 8, and 24 hr later (n=3 per time point). Plasma and brain concentration of ARN2966 were determined using liquid chromatography-mass spectrometry (LC/MS) (Table I). […] 64.2% of its orally administered dose was absorbed from the alimentary tract. […] This is because of the instability of —CH═N— bond. Therefore, we focused on PK/BBB permeability characterization of ARN2966, where —CH═N— bond was reduced to —CH2—NH—.

Series [4] deals with Aβ plaques. In words: Aβ plaque load and brain Aβ level after chronic treatment. Type of series: in vivo, mice. Here is the method:
Female APPSW/PS1dE9 AD double transgenic (Tg) mice received daily intraperitoneal injections of ARN2966 (50 mg/kg) starting from the age of six months until the age of 10 months.
Following the course of ARN2966 treatment, animals were sacrificed, and the load of Thioflavin-S (Th-S) stained Aβ plaques (% of histological section area covered by plaques) was quantified in the brain cortex on serial coronal sections through the rostrocaudal axis of the right hemisphere as described by us [Sadowski 2004]. The left hemisphere was homogenized (1:10 weight/volume), and aliquots of the homogenate were used to measure the level of Aβ oligomers (Aggregated β-Amyloid ELISA Kit, [Invitrogen]) or subjected to formic acid (FA) extraction to determine total Aβ40 and Aβ42 brain levels via sandwich ELISAs discriminating C-terminal configuration of both peptides as described by us [Sadowski 2006]. […] Levels of FA extracted Aβ40 and Aβ42 were reduced by 82% (p<0.001) and 56% (p<0.001; FIG. 6C).
FIGS. 6.(A, B) ARN2966 treatment reduces load of Aβ plaques (n=10 ARN2966, n=15 Vehicle). (B) Representative photomicrograph of Th-S stained brain sections from vehicle and ARN2966 treated 10 month old, female APPSW/PS1dE9reveal a difference in the load of Aβ plaques. […] (D) Reduced Aβ40 and Aβ42 levels in FA extracted brain homogenate, which represent the total brain content of Aβ peptides in ARN2966 treated animals (ELISA). (E) Reduced soluble Aβ40 level in DEA extracted brain homogenate, of ARN2966 and Compound E treated mice (ELISA). […] Aβ concentrations in (C) (D) and (E) are given per gram of wet brain. All values are given as mean±SEM. Statistical analysis was done using two-tailed unpaired t-test, following confirmation of normal distribution of data using Shapiro-Wilk test.

Series [5] deals with T1, Aβ40 (Homo sapiens, UniProt P05067).
T1 construct: host or cells: chemical solid-phase peptide synthesis (no expression host)
In words: Oligomerization assay. It is filed as biochemical. On the procedure: […] monomerized synthetic Aβ40 was incubated in 0.1M Tris pH 7.0, T=37° C. for 8 days in the presence of 0-100 μM concentration of compounds. […] An arrow indicates Aβ monomers clustered in ill developed protofibril. (C) Oligomerization assay. ARN4261 and ARN4224 reduced the amount of Aβ oligomers by 78% and 74%, respectively p<0.001. A compound 69b (GKLVFNmgA) was used as a positive control. 69b is homologous to Aβ sequence 17-21 and contains N-methyl glycine (Nmg), which renders it capable of anti-fibrillization and anti-oligomerization effect. (D) Principle of oligomerization assay. 100 μM Aβ40 was aggregated alone or with the addition of 10 μM of tested compounds [1:10 compound: Ab ratio] for 24 h in conditions promoting oligomers assembly, i.e., DMEM/F-12 medium+0.2% SDS, T=4° C. Prior to SDS-PAGE in non-reducing conditions samples were treated with glutaraldehyde. A strong smear of Aβ oligomers is seen between 37 and 70 KDa markers (arrows) in lane 2, and a dense band below the 25 KDa marker reflects Aβ monomers non-dissociated by 10% polyacrylamide gel. No oligomers above 37 KDa marker are seen in lane 1 containing only Aβ monomers run as a control. […] (E) TEM of Aβ oligomers. […] Yellow arrowhead indicates smaller oligomers.

Setting [6] is: male, CD-1, mouse, plasma, IV - 5 mg/kg, mice.
Setting [7] is: male, CD-1, mouse, plasma, PO - 25 mg/kg, mice.
Where [8] appears, read: 50 mg/kg/day ip, age six to ten months, ELISA.

Like-named read-outs stand apart in the source and are kept apart here.

T1 sequence (P05067 672-711): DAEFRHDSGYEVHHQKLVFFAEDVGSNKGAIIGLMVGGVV

For orientation: Tmax means the time at which the peak concentration occurs. For orientation: AUC(0-inf) means total exposure, with the tail of the curve extrapolated. A higher AUC(0-inf) goes with more exposure. The term clearance denotes the rate of elimination divided by the concentration. Lower therefore signals a low capacity for elimination. The Cmax is the peak of the concentration-time curve. Regarding `Oc1ccccc1NCc1ccccn1` [ARN2966, 2-[(pyridine-2-ylmethyl)-amino]-phenol], in series [1], the “cell morphology by phase contrast microscopy” value was “restored normal cell morphology”. For the same compound, the “rescue of cell death induced by H2O2” value in series [1] (300 μM H2O2, increasing concentrations, MTT) is reported as “rescue M17 neuroblastoma cell death”. Besides, in series [1] (0.5 mM MPP+, increasing concentrations, MTT), the “rescue of cell death induced by MPP+” value is on record as “rescue M17 neuroblastoma cell death”. Also, in series [2], the “body weight / weight gain” value is recorded as “proper rate of age related weight gain”; the “histopathological evaluation of organs” value was “No signs of ARN2966 toxicity”; the “physical appearance, unprovoked behavior, response to external stimuli” value was “no noticeable changes in physical appearance, unprovoked behavior or response to external stimuli”. The “Brain Cmax” value in series [3] (IV - 5 mg/kg, mice, 5 mg/kg) amounted to 21.4 µg/kg. Further, the “Brain Cmax” value in series [3] (IV - 5 mg/kg, mice, listed as ARN 2966, 5 mg/kg) came to 21.4 ± 2.7 µg/kg. Moreover, the “F (fraction dose absorbed)” value in series [3] (PO - 25 mg/kg, 25 mg/kg) is recorded as 64.2%. For the same compound, in series [3] (PO - 25 mg/kg, listed as ARN 2966, 25 mg/kg), the “F (fraction dose absorbed)” value was determined as 64.20%. Also, the “Brain Cmax” value in series [3] (PO - 25 mg/kg, mice) was 12.5 ± 2.3 µg/kg. Besides, the maximal brain concentration in series [3] (after iv dosing, 5 mg/kg) is 0.11 µM. For the same compound, the Tmax in series [3] (male, CD-1, mouse, brain, IV - 5 mg/kg, mice, read-out: Brain Tmax) was found to be 15 min. In series [3] (male, CD-1, mouse, brain, PO - 25 mg/kg, mice, read-out: Brain Tmax), the time of peak concentration (Tmax) worked out at 30 min. In series [3] (setting [6]), the AUC(0-inf) was 1230 ng·h/mL, the clearance was 67.8 mL/min/kg, the highest level (Cmax) was 1030 ± 440 ng/mL and the half-life was 368 min. The Tmax in series [3] (male, CD-1, mouse, plasma, IV - 5 mg/kg, mice, read-out: Plasma Tmax) came out at 15 min. In addition, the Vd in series [3] (male, CD-1, mouse, plasma, IV - 5 mg/kg, mice, read-out: Vz) came out at 36 L/kg. In addition, in series [3] (setting [7]), the total exposure AUC(0-inf) was 3950 ng·h/mL, the peak concentration (Cmax) came out at 2660 ± 382 ng/mL and the half-life is 215 min. In addition, in series [3] (male, CD-1, mouse, plasma, PO - 25 mg/kg, mice, read-out: Plasma Tmax), the Tmax stood at 30 min. For the same compound, in series [4] (50 mg/kg daily ip, age six to 10 months), the “reduction in the Aβ load (unbiased quantification, Thioflavin-S)” value was determined as 25.8%. Further, the “reduction of load of Th-S positive plaques in the brain cortex” value in series [4] (50 mg/kg/day ip, age six to ten months) amounted to 21.9%. In series [4] (setting [8]), the “reduction of FA extracted Aβ40 brain level” value was 82%, the “reduction of FA extracted Aβ42 brain level” value was 56% and the “reduction of level of Aβ oligomers in brain homogenate” value came out at 20.5%.
On to `Oc1ccccc1N=Cc1ccccn1` [ARN4261, 2-(Pyridin-2-ylmethyleneamino)-phenol], for which the “TEM of Aβ oligomers” value in series [5] is “increased number of Aβ monomers and dimers”. Also, the “reduction of the amount of Aβ oligomers” value in series [5] (100 μM Aβ40, 10 μM compound, 24 h, DMEM/F-12 + 0.2% SDS, 4° C.) is 78%. Besides, the “amount of oligomers on SDS-PAGE” value in series [5] (100 μM Aβ40, 10 μM compound, 24 h, lanes 3-5) is recorded as “reduced amount of oligomers”.
